Measured values from a melting point compilation (Tetko et al.; mined from patent text by program, amines drawn as free bases though some values may be those of a salt).

Row | Compound | melting point [°C]
1 | CN1C(=O)CCC1(O)c1ccc(Cl)c(S(=O)(=O)NCc2ccccc2Cl)c1 (stereo not given) | 144 to 145
2 | CS(=O)(=O)Nc1ccccc1C(=O)C1CCCCC1 | 119 to 120
3 | NCC1Cc2cccc(-c3cc(Cl)cc(Cl)c3)c2O1 (stereo not given) | 165 to 168
4 | COC[C@@H]1[C@@H](c2ccc(Cl)c(Cl)c2)C[C@@H]2CC[C@H]1N2C | 73 to 76
5 | CC(C)C(=O)NS(=O)(=O)c1cccc(N)c1 | 110 to 112
6 | Cc1nn(-c2cncc(F)c2)cc1N | 136 to 138
7 | CC1CNc2nc3c(N)nc4ccccc4c3n21 (stereo not given) | 265 to 273
8 | O=C(c1ccc(O)cc1)c1c(-c2ccccc2)oc2ccc([N+](=O)[O-])cc12 | 207
9 | O=C1c2ccc(Cl)cc2-n2c1nc1ccccc1c2=O | 301 to 303
10 | CCCCCCC(=O)c1ccc(OCC(=O)O)c(Cl)c1Cl | 104 to 105
11 | Nc1cccc2c(Br)cccc12 | 65 to 66
12 | Cn1cc(C(=O)NCc2ccc(Cl)cc2)c(=O)c2cc(CN3CCC(F)(F)CC3)ccc21 | 214 to 215
13 | Cc1ccc(N2C(=O)C(O)=C(C(=O)c3ccc(C(C)C)cc3)C2c2ccc(OC3CC3)cc2)nn1 (stereo not given) | 285 to 288
14 | Cc1cc(-c2cc(C(F)F)n3ncc(C(=O)Nc4cccc(S(=O)(=O)N5CCOCC5)c4)c3n2)ccc1C(F)(F)F | 261
15 | Clc1ncnc2c1CCOc1ccccc1-2 | 114 to 115
16 | CC(C)(C)OC(=O)N1CCc2c(n(CCCc3ccccc3)c3cc(Cl)c(Cl)cc23)CC1 | 119 to 124
17 | COc1cc(OC)cc(N2CCN(C(=O)Nc3cc4ccccc4nc3OC)CC2)c1 | 200 to 201
18 | C[C@H](NC(=O)[C@@H]1CCCN1CCC(=O)O)C(=O)N1CCC[C@H]1C(=O)O | 133 to 136
19 | CN(Cc1ccccc1)C(=O)/C=C/c1cc(Cl)cnc1N | 106 to 109
20 | COC(=O)C(=O)c1ccc(OCCOC2CCc3ccccc3C2)cc1 (stereo not given) | 86 to 87
21 | CC(C)CC(NC(=O)C(Cc1ccccn1)NC(=O)C(Cc1cccc2ccccc12)NC(=O)OCc1ccccc1)C(O)CC(=O)NCCc1ccccn1 (mixture of isomers) | 128 to 133
22 | COc1cc(/C=C/C(=O)Nc2ccccc2C(=O)O)ccc1OC1CCCC1 | 96 to 98
23 | N=C(N)NC(=O)Cn1c(Cc2cccs2)ccc1-c1ccccc1 | 99 to 120
24 | Cn1cnnc1COc1nn2c(-c3cc(Cl)on3)nnc2c2ccccc12 | 239 to 241
25 | Cc1nn(-c2ccc(C(F)(F)F)cn2)cc1COc1ccc(CCC(=O)O)cc1 | 195 to 196

Row | Compound | melting point [°C]
26 | CC(C)(N)c1ccc(C(=O)Nc2cn3cc(Cl)ccc3n2)cc1 | 235 to 237
27 | N#Cc1ccc(C(=O)Nc2ccc(Cl)c([N+](=O)[O-])c2)cc1 | 213
28 | Nc1nnc(CCCCCBr)s1 | 128 to 130
29 | O=C(Nc1cc(CO)cc(Nc2c3ccccc3nc3ccccc23)c1)Oc1ccc(N(CCCl)CCCl)cc1 | 241 to 242
30 | CC(SC(=O)c1ccccc1)C(=O)NC(Cc1ccccc1)C(=O)O (stereo not given) | 173 to 175
31 | Cc1nc2c(C)cc(Oc3cnc(N)nc3N)c(C(C)C)c2o1 | > 300
32 | COc1cc(C(C)=O)ccc1NCCCN1CCC(c2noc3cc(F)ccc23)CC1 | 96 to 98
33 | O=C(CN1CCCC1)c1ccc(F)cc1 | 49 to 50
34 | CCCOCOCCc1ccc(OCCCOC(=O)C2=C(C)NC(C)=C(C(=O)OC)[C@@H]2c2cccc([N+](=O)[O-])c2)cc1 | < 50
35 | Clc1cc(Cl)c2cccc3c2c1N=C3NCCCCCCCCCCn1ccnc1 | 129 to 131
36 | CC(C)(C)c1ccc(C(=O)Nc2cn3cc(-n4ccnc4)ccc3n2)cn1 | 242 to 245
37 | COc1cc2ccc(C3CO3)cc2cc1OC (stereo not given) | 115 to 117
38 | O=C(Oc1ccc(Oc2ccccc2)cc1)c1ccc(C(=O)Oc2ccc(Oc3ccccc3)cc2)cc1 | 193 to 194
39 | Fc1ccc(C(=C2SCSCS2)c2ccc(F)cc2)cc1 | 153 to 154
40 | CC(C)C1(C)N=C(c2c(C(=O)O)ccc3ccsc23)NC1=O (stereo not given) | 200 to 202
41 | CCOC(=O)C(=CNc1cccc(C(F)(F)F)n1)C(=O)OCC | 125 to 128
42 | N#Cc1cc(S(=O)(=O)c2ccc(Cl)cc2)[nH]c1-c1ccc(Cl)cc1 | 159 to 160
43 | CC(C)N1CCC(COc2ncc(C(=O)c3ccc(Cl)cc3)n2C)CC1 | 126 to 127
44 | NNc1ncccc1-c1ccccn1 | 64 to 65
45 | COCCOc1ccc(CCCOc2cc(CCC(=O)O)n(C)n2)c(Oc2ncc(C(F)(F)F)cc2Cl)c1 | 114 to 115
46 | CNC(=S)Nc1cc(F)ccc1N1CCOCC1 | 145 to 148
47 | Cc1cccc2c1C(=O)C1(CCOC1=O)S2 (stereo not given) | 106
48 | CC(=O)N1CCN(c2cc(Cl)c(Cl)c(Cl)c2)CC1 | 133 to 136
49 | COc1ccc2c(c1)Sc1c(cc(OC)c(O)c1Br)N2C | 154 to 155
50 | CCCNC(=O)N1CCC(O)(Cc2c3c(nn2CC)c(N)nc2ccccc23)CC1 | 208 to 210

Row | Compound | melting point [°C]
51 | COc1ccc2c(ccn3c(C(F)(F)F)nnc23)c1 | 214 to 215
52 | COc1ccc(N2C(=O)c3ccc(Cl)cc3C2CC(=O)N2CCN(C)CC2)cc1 (stereo not given) | 169 to 171
53 | CC(O)(C(=O)Nc1ccc(C(=O)c2ccccc2)cc1F)C(F)(F)F (stereo not given) | 138 to 139
54 | Oc1c(Br)cc(Cl)cc1Cc1cc(F)cc(Cc2cc(Cl)cc(Br)c2O)c1O | 164
55 | O=c1oc2cc(O)c(O)cc2c(O)c1C1c2ccccc2Oc2c1c(=O)oc1cc(O)cc(O)c21 (stereo not given) | > 300
56 | c1ccc(C2Nc3c4c(nc5ccccc35)CCCC4O2)cc1 (stereo not given) | 225 to 235
57 | COC(=O)C(CC(C)C)NC(=O)C(CC(C)C)NC(=O)OCc1ccccc1 (stereo not given) | 80 to 82
58 | Cn1c(=O)oc2c3ncccc3c(Cl)cc21 | 219 to 221
59 | CCCCc1nc2cccc(C(=O)OC)c2n1Cc1ccc(-c2ccccc2-c2nnn[nH]2)cc1 | 153 to 155
60 | O=C(NCc1cccs1)C12CC3CC(CC1C3)C2 | 143 to 145
61 | CNC(=O)C(NC(=O)c1cn(C)nc1C(F)(F)F)C(COC(C)=O)c1ccccc1 (stereo not given) | 175
62 | CC(N1CCC(n2c(=O)[nH]c3ccccc32)CC1)N1Sc2ccccc2C1C(N)=O (stereo not given) | 174 to 177
63 | O=C(Cn1cnc2ccccc21)Nc1ccc(-n2nc(C3CC3)cc2C2CC2)cc1 | 230 to 235
64 | CC(C)c1nc(CO)n(C)c1Sc1cc(Cl)cc(Cl)c1 | 157 to 158
65 | CC(C)OC(=O)N1Cc2c(-c3ccc(F)cc3)ncn2-c2ccccc21 | 160
66 | c1ccc(Nc2c(-c3ccccc3)sc3ccccc23)cc1 | 142 to 143
67 | O=C(O)c1cnc(NC(=O)C(CC2CCCC2)c2ccc(Cl)c(Cl)c2)s1 (stereo not given) | 269 to 270
68 | NC(CNCC(N)=NO)=NO | 135 to 136
69 | Cc1ncsc1C(=O)Nc1ccc(-n2nc(C3CC3)cc2C2CC2)cc1 | 110 to 114
70 | O=C(O)Cc1c(C(=O)O)c2cc(Oc3cc(Cl)cc(Cl)c3)ccc2n1-c1ccc(OC(F)(F)F)cc1 | 219 to 223
71 | CCOC1=N[C@@H](CSCC)C(=O)N[C@@H]1Cc1ccccc1 | 118
72 | COc1ccc(C2CCN(c3c(C)c(C)c4c(c3C)C(c3ccccc3)C(C)(C)O4)CC2)cc1OC (stereo not given) | 118 to 120
73 | Cc1ccc2ncc3nc(C(F)(F)F)n(C)c3c2c1 | 220 to 223
74 | COc1cc(C=C(Br)Br)ccc1OC(C)C | 36 to 38
75 | O=C(Nc1cccnc1)N1CCc2ccccc2CC1 | 144 to 146

Row | Compound | melting point [°C]
76 | O=C(O)c1ccc2c(=O)c3cc(C(=O)O)ccc3oc2c1 | > 400
77 | CC(=O)Nc1cc2c(s1)C(c1ccccc1)CN(C)CC2 (stereo not given) | 180
78 | CC(C)(C)C(NC(=O)c1cccc(Cl)c1)Nc1c(Nc2cccnc2Cl)c(=O)c1=O (stereo not given) | 213 to 214
79 | CCCn1nc2c(N)nc3ccccc3c2c1CC(C)(C)NC(=O)c1ccc(F)cc1 | 168 to 169
80 | Cc1cc(=O)n(Cc2ccccc2)c2ccccc12 | 109 to 111
81 | Cc1cc(C(O)(C(F)(F)F)C(F)(F)F)cc(C)c1NCC(N)=O | 205 to 207
82 | N#Cc1cnc2ccc(N)cc2c1Nc1ccc(F)c(Br)c1 | 210 to 212
83 | Cc1noc(NS(=O)(=O)c2ccccc2-c2ccc(C(F)(F)F)cc2)c1C | 57 to 62
84 | CC(CSC(=S)c1ccc(F)cc1)C(=O)N1CCCC1C(=O)O (stereo not given) | 114 to 115
85 | CCOC(=O)C[C@H](O)C[C@H](O)/C=C/c1c(-c2ccc(F)cc2)nc(N(C)S(C)(=O)=O)nc1C(C)C | 92 to 94
86 | O=C(O)C1CC(=O)N(Cc2ccccc2)C1c1ccccc1 (stereo not given) | 169 to 171
87 | NC(=O)NCCCCC1CCSS1 (stereo not given) | 110 to 113
88 | O=C(N=CNO)c1cc2c(cn1)[nH]c1ccccc12 | 235 to 240
89 | CC1=NC2CN=C(c3ccccc3F)c3cc(Cl)ccc3C2C(=O)N1 (stereo not given) | 150 to 165
90 | Cc1ccn(-c2cncc(F)c2)n1 | 70 to 72
91 | CN(C)C=C(C=CC#N)c1ccccc1 | 77 to 83
92 | O=S(=O)(c1ccc(Cl)cc1)N1CCCC1c1ccsc1 (racemic) | 120
93 | O=C(O)c1ccc(-c2cc(-c3ccccc3)no2)cc1 | > 300
94 | O=Cc1ccc(C(=O)NCC(F)(F)F)cc1 | 83 to 84
95 | COc1cc2c3ccc(OC)c(OC)c3n(C(=O)c3cccc([N+](=O)[O-])c3)c2cc1OC | 187 to 191
96 | CC(C)(C)CC(C)(C)NC(=O)Nc1ccccc1CCc1cc(C(C)(C)C)c(O)c(C(C)(C)C)c1 | 168 to 169
97 | Cc1cc([N+](=O)[O-])c(NCC(O)CO)c([N+](=O)[O-])c1 (stereo not given) | 118
98 | Cc1ccc(S(=O)(=O)OCC2Cc3cccc(-c4ccc(F)cc4)c3O2)cc1 (stereo not given) | 83 to 86
99 | Cc1nc(-n2ccc(OCc3ccccn3)cc2=O)sc1C(=O)NCc1ccccc1 | 202 to 205
100 | CCCCCN1C(=O)C(=O)c2c(OC)cccc21 | 80 to 82
